Measurements reported in US20050106111A1, “Compositions and methods for reducing dental plaque” (Aphios Corporation, priority 2003, published 2005).
In brackets after ≈: the same amount, converted by molar mass. Like-named read-outs stand apart in the source and are kept apart here.

Columns and labels:
Streptococcus mutans [1] = assay: Minimum inhibitory concentration (MIC) against S. mutans; type: cell-based
Source text: (§1) Minimum inhibitory concentrations (MIC) can be determined to identify the minimum concentration of a composition needed to inhibit the growth of the target organism using methods well known to those skilled in the art. Minimum bactericidal concentrations (MBC) can be determined to identify the minimum concentration of a composition needed to kill the target organism using methods well known to those skilled in the art. The MBC can be determined from the same plates set up for the MIC.
(§2) Cultures of Actinomyces viscosus, Streptococcus mutans, and Actinobacillus actinomycete-mcomitans were obtained from the American Type Culture Collection (ATCC) following instructions provided by ATCC. Frozen stocks of each bacteria were prepared by adding 10% (v/v) volume of glycerol to an overnight culture; aliquots of the resulting suspension were then frozen at −80° C.
(§3) Minimum inhibitory concentrations (MIC) were determined to identify the minimum concentration of a compound needed to inhibit the growth of the target organism. Minimum bactericidal concentrations (MBC) were determined to identify the minimum concentration of a compound needed to kill the target organism. The MBC was determined from the same plates set up for the MIC.

Actinomyces viscosus [2] = assay: Minimum inhibitory concentration (MIC) against A. viscosus; type: cell-based
Source text: as §1, §2, §3

Actinomyces viscosus [3] = assay: Minimum bactericidal concentration (MBC) against A. viscosus; type: cell-based
Source text: as §1, §2, §3

Streptococcus mutans [4] = assay: Minimum bactericidal concentration (MBC) against S. mutans; type: cell-based
Source text: as §1, §2, §3

A. viscosus = assay: Biofilm assay, bactericidal activity against A. viscosus in a biofilm on a solid support; type: cell-based; details: 125 μg/mL, 1 hour incubation in test agent
Experimental: (§4) A biofilm assay can be conducted to assess the bactericidal activity of the target compositions when the challenge organisms are contained within a biofilm. The semi-purified Vibrio gazogenes extract can be assayed for bactericidal activity against orally-relevant microbes contained in a biofilm grown on a solid support.
as §4, with “was” for “can be”, “access” for “assess”, “compounds” for “compositions”

S. mutans = assay: Biofilm assay, bactericidal activity against S. mutans in a biofilm on a solid support; type: cell-based; details: 125 μg/mL, 1 hour incubation in test agent
Experimental: as §4
as §4, with “was” for “can be”, “access” for “assess”, “compounds” for “compositions”

A. actinomycetemcomitans [5] = assay: Biofilm assay, bactericidal activity against A. actinomycetemcomitans in a biofilm on a solid support; type: cell-based; details: 125 μg/mL, 1 hour incubation in test agent
Experimental: as §4
as §4, with “was” for “can be”, “access” for “assess”, “compounds” for “compositions”

A. actinomycetemcomitans [6] = assay: Minimum inhibitory concentration (MIC) against A. actinomycetemcomitans; type: cell-based; details: Aggregatibacter actinomycetemcomitans
Source text: as §1, §2, §3

A. actinomycetemcomitans [7] = assay: Minimum bactericidal concentration (MBC) against A. actinomycetemcomitans; type: cell-based; details: Aggregatibacter actinomycetemcomitans
Source text: as §1, §2, §3

[8] = clinical trials; cited from earlier work
mice = details: cited from earlier work

Q: For Oc1cc(Cl)ccc1Oc1ccc(Cl)cc1Cl [Triclosan, 5-chloro-2-(2,4-dichlorophenoxy)-phenol], which MIC (Streptococcus mutans [1]) is on record?
A: The MIC was 7.8 µg/mL (≈ 26.9 µM).

Q: And the MIC (Actinomyces viscosus [2])?
A: Its MIC is 3.9 µg/mL (≈ 13.5 µM).

Q: What about the MBC (Actinomyces viscosus [3]) of the same compound?
A: The MBC was 3.9 µg/mL (≈ 13.5 µM).

Q: What about the MBC (Streptococcus mutans [4]) of the same compound?
A: The MBC was 15.6 µg/mL (≈ 53.9 µM).

Q: What about the “Microbial Biofilm Control (bacteria count after treatment)” value (shortened to “Microbial Biofilm Control”) (A. viscosus) of the same compound?
A: Its value is 6.0 × 10^5.

Q: What about the “Microbial Biofilm Control” value (S. mutans) of the same compound?
A: The value was 0.

Q: What about the “Microbial Biofilm Control” value (A. actinomycetemcomitans [5]) of the same compound?
A: The value was 2.1 × 10^6.

Q: And the MIC (A. actinomycetemcomitans [6])?
A: The MIC was less than 0.75 µg/mL.

Q: What about the MBC (A. actinomycetemcomitans [7]) of the same compound?
A: Its MBC is less than 0.75 µg/mL.

Q: With N=C(NCCCCCCNC(=N)NC(=N)Nc1ccc(Cl)cc1)NC(=N)Nc1ccc(Cl)cc1.O=C(O)[C@H](O)[C@@H](O)[C@H](O)[C@H](O)CO.O=C(O)[C@H](O)[C@@H](O)[C@H](O)[C@H](O)CO [CHG, chlorhexidine digluconate] as the compound, how does the reduced gingivitis [8] read?
A: Its reduced gingivitis is 50-80%.

Q: For magnesidin, which LD50 (mice; intraperitoneal) is on record?
A: Its LD50 is 50 mg/kg.

Q: And the LD50 (mice; oral or subcutaneous)?
A: Its LD50 is 1,000 mg/kg.

Q: Which results are given for [H]/N=C(\N/C(=N/[H])NCCCCCCNC(=N)NC(=N)Nc1ccc(Cl)cc1)Nc1ccc(Cl)cc1 [Chlorhexidine, chlorhexidine]?
A: MIC (Streptococcus mutans [1]; S. mutans, read-out: MIC): 1.95 µg/mL (≈ 3.86 µM); MIC (Actinomyces viscosus [2]; A. viscosus, read-out: MIC): 3.9 µg/mL (≈ 7.72 µM); MBC (Actinomyces viscosus [3]; A. viscosus, read-out: MBC): 7.8 µg/mL (≈ 15.4 µM); MBC (Streptococcus mutans [4]; S. mutans, read-out: MBC): 1.95 µg/mL (≈ 3.86 µM); MIC (A. actinomycetemcomitans [6]; A. actinomycetemcomitans, read-out: MIC): 3.9 µg/mL (≈ 7.72 µM); MBC (A. actinomycetemcomitans [7]; A. actinomycetemcomitans, read-out: MBC): 3.9 µg/mL (≈ 7.72 µM)
